biological target: T1, KRAS G12C (Homo sapiens, UniProt P01116, G12C); experiment: Inhibitory activity on the KRAS G12C nucleotide (GDP-GTP) exchange reaction; assay type: biochemical; details: Bodipy FL GDP-bound KRAS G12C 25 nM; preincubation at 25° C. for 4 hours; SOS1 100 nM, GppNHp 1 μM, reaction for 30 minutes
T1 construct: KRAS G12C (amino acid region: 1-169)
Description: Test Example 2: Evaluation of Inhibitory Activity of Compounds on the KRAS G12C Nucleotide (GDP-GTP) Exchange Reaction
The inhibitory activity of compounds on the exchange reaction of GDP into GppNHp in Bodipy (trademark) FL-bound KRAS G12C was examined by fluorescence measurement using human recombinant KRAS G12C and SOS1 proteins.
For the preparation of KRAS G12C to which Bodipy FL GDP was bound, first, 50 µM KRAS G12C (amino acid region: 1-169) and 1 mM Bodipy FL GDP (Invitrogen, G22360) were incubated for 1 hour in a buffer (20 mM Tris-HCl (pH 7.5), 50 mM NaCl, 1 mM DTT) in ice in the presence of 2.5 mM EDTA. Thereafter, MgCl2 with a final concentration of 10 mM was added, and the mixture was incubated at room temperature for 30 minutes. The protein was allowed to pass through a NAP-5 column to remove free nucleotides and was used for compound evaluation.
For the measurement of the inhibitory activity of compounds on nucleotide exchange reaction, first, the compound of the disclosure was diluted stepwise with dimethyl sulfoxide (DMSO). Subsequently, a solution of the gradually diluted compound of the disclosure in DMSO (the final concentration of DMSO: 5%) and KRAS G12C (25 nM) bound to Bodipy FL GDP were added to a reaction buffer (20 mM Tris-HCl (pH 7.5), 100 mM NaCl, 1 mM MgCl2, 2 mM DTT, 0.1% Tween20), followed by preincubation at 25° C. for 4 hours. Thereafter, Son of Sevenless Homolog 1 (SOS1, amino acid region: 564-1049) and GppNHp (GMPPNP, Jena Bioscience GmbH, NU-401-50) were added such that their final concentration was 100 nM and 1 μM respectively, followed by reaction for 30 minutes. The change in fluorescence intensity of Bodipy FL (excitation wavelength: 485 nm, fluorescence wavelength: 520 nm) immediately after the start of reaction and after 30 minutes from the start of reaction was standardized. The signal value for only DMSO was determined to be 0% inhibition, and the signal value for no addition of GppNHp was determined to be 100% inhibition. The compound concentration at which 50% inhibition is achieved was determined to be the IC50 (nM) and was calculated.

T1 sequence (P01116 1-169 isoform P01116-2 G12C): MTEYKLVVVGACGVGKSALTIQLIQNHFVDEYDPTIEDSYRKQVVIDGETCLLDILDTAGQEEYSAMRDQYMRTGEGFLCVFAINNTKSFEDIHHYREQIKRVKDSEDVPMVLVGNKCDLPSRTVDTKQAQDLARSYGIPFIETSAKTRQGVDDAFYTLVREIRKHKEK

IC50 | SMILES
23 nM | C=CC(=O)N1CC(NC(=O)c2c(Cl)nc(CNc3n[nH]c4cc(Cl)c(C(C)(C)C)cc34)n2C2CCCCC2)C1 [Example 109, N-(1-acryloylazetidin-3-yl)-2-(((5-(tert-butyl)-6-chloro-1H-indazol-3-yl)amino)methyl)-4-chloro-1-cyclohexyl-1H-imidazole-5-carboxamide]
4280 nM | C=CC(=O)N1CCN(C(=O)c2c(C)nc(CNc3n[nH]c4cc(Cl)c(C(C)(C)C)cc34)n2C)CC1 [Example 50, 1-(4-(2-(((5-(Tert-butyl)-6-chloro-1H-indazol-3-yl)amino)methyl)-1,4-dimethyl-1H-imidazole-5-carbonyl)piperazin-1-yl)prop-2-en-1-one]
13 nM | C=CC(=O)N1C[C@H](NC(=O)c2c(C)nc(CNc3n[nH]c4cc(Cl)c(C(C)(C)C)cc34)n2C)[C@@H](F)C1 [Example 64, N-((3S,4S)-1-acryloyl-4-fluoropyrrolidin-3-yl)-2-(((5-(tert-butyl)-6-chloro-1H-indazol-3-yl)amino)methyl)-1,4-dimethyl-1H-imidazole-5-carboxamide]
2630 nM | C/C=C/C(=O)N1CC(NC(=O)c2c(C)nc(CNc3n[nH]c4cc(Cl)c(C(C)(C)C)cc34)n2C(C)C)C1 [Example 81, (E)-N-(1-(but-2-enoyl)azetidin-3-yl)-2-(((5-(tert-butyl)-6-chloro-1H-indazol-3-yl)amino)methyl)-1-isopropyl-4-methyl-1H-imidazole-5-carboxamide]
14 nM | C=CC(=O)N1CC(NC(=O)c2c(Cl)nc(CNc3n[nH]c4cc(Cl)c(C(C)(C)C)cc34)n2CC(F)F)C1 [Example 100, N-(1-acryloylazetidin-3-yl)-2-(((5-(tert-butyl)-6-chloro-1H-indazol-3-yl)amino)methyl)-4-chloro-1-(2,2-difluoroethyl)-1H-imidazole-5-carboxamide]
55 nM | C=CC(=O)N1CC(NC(=O)c2c(C)nc(CNc3n[nH]c4cc(Cl)c(C(C)(C)C)cc34)n2CC(F)(F)F)C1 [Example 22, N-(1-acryloylazetidin-3-yl)-2-(((5-(tert-butyl)-6-chloro-1H-indazol-3-yl)amino)methyl)-4-methyl-1-(2,2,2-trifluoroethyl)-1H-imidazole-5-carboxamide]
783 nM | C=CC(=O)N1CC(NC(=O)c2cnc(CNc3n[nH]c4cc(Cl)c(C(C)(C)C)cc34)s2)C1 [Example 8, N-(1-acryloylazetidin-3-yl)-2-(((5-(tert-butyl)-6-chloro-1H-indazol-3-yl)amino)methyl)thiazole-5-carboxamide]
84 nM | C=CC(=O)N1CC(NC(=O)c2c(C)nc(CNc3n[nH]c4cc(Cl)c(C(C)(C)C)cc34)n2Cc2ccccc2)C1 [Example 15, N-(1-acryloylazetidin-3-yl)-1-benzyl-2-(((5-(tert-butyl)-6-chloro-1H-indazol-3-yl)amino)methyl)-4-methyl-JH-imidazole-5-carboxamide]
35 nM | C=CC(=O)N1CC(NC(=O)c2c(C)nc(CNc3n[nH]c4cc(Cl)c(C(C)(C)C)cc34)n2C(C)(C)C)C1 [Example 24, N-(1-acryloylazetidin-3-yl)-1-(tert-butyl)-2-(((5-(tert-butyl)-6-chloro-1H-indazol-3-yl)amino)methyl)-4-methyl-1H-imidazole-5-carboxamide]
4260 nM | C=CC(=O)N1CC(NC(=O)c2csc(CNc3n[nH]c4cc(Cl)c(C(C)(C)C)cc34)n2)C1 [Example 7, N-(1-acryloylazetidin-3-yl)-2-(((5-(tert-butyl)-6-chloro-1H-indazol-3-yl)amino)methyl)thiazole-4-carboxamide]

Further lines, the compound ahead of its results:

SMILES | IC50
C=CC(=O)N1CC(NC(=O)c2c(C(F)F)nc(CNc3n[nH]c4cc(Cl)c(C(C)(C)C)cc34)n2C2CCN(C)C2)C1 (centres unmarked) [Example 91, N-(1-acryloylazetidin-3-yl)-2-(((5-(tert-butyl)-6-chloro-1H-indazol-3-yl)amino)methyl)-4-(difluoromethyl)-1-(1-methylpyrrolidin-3-yl)-1H-imidazole-5-carboxamide] | 7 nM
C=CC(=O)N1CC(NC(=O)c2c(C)nc(CNc3n[nH]c4cc(Cl)c(C(C)(C)C)cc34)n2C)C(F)(F)C1 (centres unmarked) [Example 53, N-(1-acryloyl-4,4-difluoropyrrolidin-3-yl)-2-(((5-(tert-butyl)-6-chloro-1H-indazol-3-yl)amino)methyl)-1,4-dimethyl-1H-imidazole-5-carboxamide] | 42 nM
C=CC(=O)N1CC(NC(=O)c2cnc(CNc3n[nH]c4cc(Cl)c(C(C)(C)C)cc34)n2C)C1 [Example 1, N-(1-acryloylazetidin-3-yl)-2-(((5-(tert-butyl)-6-chloro-1H-indazol-3-yl)amino)methyl)-1-methyl-1H-imidazole-5-carboxamide] | 16 nM
C=CC(=O)N1C[C@@H](CC#N)[C@@H](NC(=O)c2c(C)nc(CNc3n[nH]c4cc(Cl)c(C(C)(C)C)cc34)n2C)C1 [Example 65, N-((3R,4R)-1-acryloyl-4-(cyanomethyl)pyrrolidin-3-yl)-2-(((5-(tert-butyl)-6-chloro-1H-indazol-3-yl)amino)methyl)-1,4-dimethyl-1H-imidazole-5-carboxamide] | 19 nM
C=CC(=O)N1CC(NC(=O)c2c(C)nc(CNc3n[nH]c4cc(Cl)c(C(C)(C)C)cc34)n2CCC)C1 [Example 19, N-(1-acryloylazetidin-3-yl)-2-(((5-(tert-butyl)-6-chloro-1H-indazol-3-yl)amino)methyl)-4-methyl-1-propyl-1H-imidazole-5-carboxamide] | 9 nM
Cc1nc(CNc2n[nH]c3cc(Cl)c(C(C)(C)C)cc23)n(C)c1C(=O)NC1CN(C(=O)/C=C/CN(C)C)C1 [Example 80, (E)-2-(((5-(tert-butyl)-6-chloro-1H-indazol-3-yl)amino)methyl)-N-(1-(4-(dimethylamino)but-2-enoyl)azetidin-3-yl)-1,4-dimethyl-1H-imidazole-5-carboxamide] | 63 nM
C=CC(=O)N1CC(NC(=O)c2c(C)nc(CNc3n[nH]c4cc(Cl)c(C(C)(C)C)cc34)n2CCN(C)C)C1 [Example 16, N-(1-acryloylazetidin-3-yl)-2-(((5-(tert-butyl)-6-chloro-1H-indazol-3-yl)amino)methyl)-1-(2-(dimethylamino)ethyl)-4-methyl-JH-imidazole-5-carboxamide] | 25 nM
C=CC(=O)N1C[C@@H](CO)[C@@H](NC(=O)c2c(C)nc(CNc3n[nH]c4cc(Cl)c(C(C)(C)C)cc34)n2C)C1 [Example 58, N-((3R,4R)-1-acryloyl-4-(hydroxymethyl)pyrrolidin-3-yl)-2-(((5-(tert-butyl)-6-chloro-1H-indazol-3-yl)amino)methyl)-1,4-dimethyl-1H-imidazole-5-carboxamide] | 28 nM
C=CC(=O)N1CC(NC(=O)c2c(Cl)nc(CNc3n[nH]c4cc(Cl)c(C(C)(C)C)cc34)n2[C@H]2CCOC2)C1 [Example 97, (S)-N-(1-acryloylazetidin-3-yl)-2-(((5-(tert-butyl)-6-chloro-1H-indazol-3-yl)amino)methyl)-4-chloro-1-(tetrahydrofuran-3-yl)-1H-imidazole-5-carboxamide] | 4 nM
C=CC(=O)N1CC(NC(=O)c2c(C)nc(CNc3n[nH]c4cc(Cl)c(C(C)(C)C)cc34)n2C)C1 [Example 3, N-(1-acryloylazetidin-3-yl)-2-(((5-(tert-butyl)-6-chloro-1H-indazol-3-yl)amino)methyl)-1,4-dimethyl-1H-imidazole-5-carboxamide] | 9 nM
C=CC(=O)N1CC(NC(=O)c2cnc(CNc3n[nH]c4cc(Cl)c(C)cc34)n2C)C1 [Example 37, N-(1-acryloylazetidin-3-yl)-2-(((6-chloro-5-methyl-1H-indazol-3-yl)amino)methyl)-1-methyl-1H-imidazole-5-carboxamide] | 5480 nM
C=CC(=O)N1CC(NC(=O)c2sc(CNc3n[nH]c4cc(Cl)c(C(C)(C)C)cc34)nc2C)C1 [Example 2, N-(1-acryloylazetidin-3-yl)-2-(((5-(tert-butyl)-6-chloro-1H-indazol-3-yl)amino)methyl)-4-methylthiazole-5-carboxamide] | 365 nM
C=CC(=O)N1C[C@H](NC(=O)c2c(C(F)F)nc(CNc3n[nH]c4cc(Cl)c(C(C)(C)C)cc34)n2C)[C@@H](F)C1 [Example 70, N-((3S,4S)-1-acryloyl-4-fluoropyrrolidin-3-yl)-2-(((5-(tert-butyl)-6-chloro-1H-indazol-3-yl)amino)methyl)-4-(difluoromethyl)-1-methyl-1H-imidazole-5-carboxamide] | 79 nM

— patent US20230181536A1, “ANTICANCER COMBINATION THERAPY WITH N-(1-ACRYLOYL-AZETIDIN-3-YL)-2-((1H-INDAZOL-3-YL)AMINO)METHYL)-1H-IMIDAZOLE-5-CARBOXAMIDE INHIBITOR OF KRAS-G12C” (TAIHO PHARMACEUTICAL CO., LTD., priority 2020, published 2023)
